This note sets out measurements from patent publication US11649255B2, “Indazoles as hematopoietic progenitor kinase 1 (HPK1) inhibitors and methods using same” (1st Biotherapeutics, Inc., priority 2020, dated 2023).

A word on the IC50: it is the midpoint of a concentration-inhibition curve.

This assay concerns the target recombinant human HPK1 (Homo sapiens (Human), UniProt Q92918). In words: HPK1 kinase assay (ADP-Glo). The class given is biochemical. To be noted: 25 μM ATP, MBP substrate. The method in brief:
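Activity was read as ADP formed, detected by ADP-Glo luminescence after the reaction of 5 ng recombinant human HPK1 with MBP and ATP (stocks 0.5 μg/μl and 25 μM) for 40 min at 30 °C. Buffer was Tris pH 7.5 with MgCl2, BSA and DTT, with compound in 0.5% DMSO. IC50 came from inhibition curves.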
A general note: In ADP-Glo the light output rises with the ADP produced.

recombinant human HPK1, sequence (Q92918 whole entry): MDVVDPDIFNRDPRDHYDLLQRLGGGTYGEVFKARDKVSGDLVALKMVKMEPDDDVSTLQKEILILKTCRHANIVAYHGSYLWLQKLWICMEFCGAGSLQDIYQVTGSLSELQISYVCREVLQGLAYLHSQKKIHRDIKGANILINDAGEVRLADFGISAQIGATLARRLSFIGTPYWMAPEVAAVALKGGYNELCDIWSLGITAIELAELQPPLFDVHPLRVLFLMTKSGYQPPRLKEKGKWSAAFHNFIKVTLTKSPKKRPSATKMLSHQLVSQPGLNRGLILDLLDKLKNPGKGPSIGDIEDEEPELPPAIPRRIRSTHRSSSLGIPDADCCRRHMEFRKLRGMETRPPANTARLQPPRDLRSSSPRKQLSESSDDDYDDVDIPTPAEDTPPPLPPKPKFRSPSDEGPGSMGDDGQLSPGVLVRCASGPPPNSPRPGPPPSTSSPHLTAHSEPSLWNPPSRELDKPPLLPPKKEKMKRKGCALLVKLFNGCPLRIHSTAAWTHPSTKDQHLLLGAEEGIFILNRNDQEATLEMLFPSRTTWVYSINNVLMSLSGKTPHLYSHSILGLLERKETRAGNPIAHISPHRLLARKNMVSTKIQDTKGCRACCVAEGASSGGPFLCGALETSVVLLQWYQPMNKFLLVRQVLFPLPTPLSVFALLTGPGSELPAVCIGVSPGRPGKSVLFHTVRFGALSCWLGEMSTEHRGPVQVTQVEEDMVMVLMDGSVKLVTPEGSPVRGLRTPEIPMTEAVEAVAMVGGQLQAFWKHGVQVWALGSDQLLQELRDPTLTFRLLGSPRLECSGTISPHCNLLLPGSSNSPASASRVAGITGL

On to `CN(Nc1c(F)c(Cl)c(-c2ccc3nc(NC(=O)[C@@H]4C[C@@H]4F)cn3c2)c2cn[nH]c12)C(=O)OC(C)(C)C` [Example 309, tert-butyl 2-(5-chloro-6-fluoro-4-(2-((1S,2S)-2-fluorocyclopropane-1-carboxamido)imidazo[1,2-a]pyridin-6-yl)-1H-indazol-7-yl)-1-methylhydrazine-1-carboxylate], for which the IC50 was less than 100 nM. For the compound `CCOc1c(F)c(SC)c(-c2ccc3nc(NC(=O)[C@@H]4C[C@@H]4F)cn3c2)c2cn[nH]c12` [Example 310, (1S,2S)-N-(6-(7-ethoxy-6-fluoro-5-(methylthio)-1H-indazol-4-yl)imidazo[1,2-a]pyridin-2-yl)-2-fluorocyclopropane-1-carboxamide], the IC50 was less than 100 nM. The same measure for `CNC(=O)OCCSc1c(F)c(C)c(-c2ccc3nc(NC(=O)[C@@H]4C[C@@H]4F)cn3c2)c2cn[nH]c12` [Example 312, 2-((6-fluoro-4-(2-((1S,2S)-2-fluorocyclopropane-1-carboxamido)imidazo[1,2-a]pyridin-6-yl)-5-methyl-1H-indazol-7-yl)thio)ethyl methylcarbamate]: less than 100 nM; for `Cc1c(F)c(C(=O)O)c2[nH]ncc2c1-c1ccc2nc(NC(=O)[C@@H]3C[C@@H]3F)cn2c1` [Example 313, 6-fluoro-4-(2-((1S,2S)-2-fluorocyclopropane-1-carboxamido)imidazo[1,2-a]pyridin-6-yl)-5-methyl-1H-indazole-7-carboxylic acid]: more than 1000 nM. Then `O=C(O)c1c(F)c(Cl)c(-c2ccc3nc(NC(=O)[C@@H]4C[C@@H]4F)cn3c2)c2cn[nH]c12` [Example 314, 5-chloro-6-fluoro-4-(2-((1S,2S)-2-fluorocyclopropane-1-carboxamido)imidazo[1,2-a]pyridin-6-yl)-1H-indazole-7-carboxylic acid], with more than 1000 nM; and `COC(=O)c1c(F)c(Cl)c(-c2ccc3nc(NC(=O)[C@@H]4C[C@@H]4F)cn3c2)c2cn[nH]c12` [Example 315, methyl 5-chloro-6-fluoro-4-(2-((1S,2S)-2-fluorocyclopropane-1-carboxamido)imidazo[1,2-a]pyridin-6-yl)-1H-indazole-7-carboxylate], with less than 100 nM. `CNNc1c(F)c(Cl)c(-c2ccc3nc(NC(=O)[C@@H]4C[C@@H]4F)cn3c2)c2cn[nH]c12` [Example 317, (1S,2S)-N-(6-(5-chloro-6-fluoro-7-(2-methylhydrazineyl)-1H-indazol-4-yl)imidazo[1,2-a]pyridin-2-yl)-2-fluorocyclopropane-1-carboxamide]: the IC50 was less than 100 nM. The same measure for `CCOc1c(F)c(CC)c(-c2ccc3nc(NC(=O)[C@@H]4C[C@@H]4F)cn3c2)c2cn[nH]c12` [Example 318, (1S,2S)-N-(6-(7-ethoxy-5-ethyl-6-fluoro-1H-indazol-4-yl)imidazo[1,2-a]pyridin-2-yl)-2-fluorocyclopropane-1-carboxamide]: less than 100 nM. `CC(=O)c1c(F)c(Cl)c(-c2ccc3nc(NC(=O)[C@@H]4C[C@@H]4F)cn3c2)c2cn[nH]c12` [Example 319, (1S,2S)-N-(6-(7-acetyl-5-chloro-6-fluoro-1H-indazol-4-yl)imidazo[1,2-a]pyridin-2-yl)-2-fluorocyclopropane-1-carboxamide]: the 50% inhibitory concentration (IC50) is less than 100 nM. The same measure for `CNC(=O)c1c(F)c(Cl)c(-c2ccc3nc(NC(=O)[C@@H]4C[C@@H]4F)cn3c2)c2cn[nH]c12` [Example 321, 5-chloro-6-fluoro-4-(2-((1S,2S)-2-fluorocyclopropane-1-carboxamido)imidazo[1,2-a]pyridin-6-yl)-N-methyl-1H-indazole-7-carboxamide]: less than 100 nM; for `CC(=O)c1c(F)c(C)c(-c2ccc3nc(NC(=O)[C@@H]4C[C@@H]4F)cn3c2)c2cn[nH]c12` [Example 322, (1S,2S)-N-(6-(7-acetyl-6-fluoro-5-methyl-1H-indazol-4-yl)imidazo[1,2-a]pyridin-2-yl)-2-fluorocyclopropane-1-carboxamide]: 101 to 500 nM. `O=C(Nc1cn2cc(-c3c(Cl)c(F)c(F)c4[nH]ncc34)ccc2n1)[C@@H]1C[C@@H]1F` [Example 323, (1S,2S)-N-(6-(5-chloro-6,7-difluoro-1H-indazol-4-yl)imidazo[1,2-a]pyridin-2-yl)-2-fluorocyclopropane-1-carboxamide]: the IC50 is less than 100 nM. As to `NC(=O)c1c(F)c(Cl)c(-c2ccc3nc(NC(=O)[C@@H]4C[C@@H]4F)cn3c2)c2cn[nH]c12` [Example 325, 5-chloro-6-fluoro-4-(2-((1S,2S)-2-fluorocyclopropane-1-carboxamido)imidazo[1,2-a]pyridin-6-yl)-1H-indazole-7-carboxamide], the IC50 was more than 1000 nM. Then `CCOc1c(F)cc2[nH]ncc2c1-c1ccc2nc(NC(=O)[C@@H]3C[C@@H]3F)cn2c1` [Example 328, (1S,2S)-N-(6-(5-ethoxy-6-fluoro-1H-indazol-4-yl)imidazo[1,2-a]pyridin-2-yl)-2-fluorocyclopropane-1-carboxamide], with less than 100 nM; and `O=C(Nc1cn2cc(-c3c(Cl)c(F)c(C(F)F)c4[nH]ncc34)ccc2n1)[C@@H]1C[C@@H]1F` [Example 331, (1S,2S)-N-(6-(5-chloro-7-(difluoromethyl)-6-fluoro-1H-indazol-4-yl)imidazo[1,2-a]pyridin-2-yl)-2-fluorocyclopropane-1-carboxamide], with less than 100 nM; and `CN(C)c1c(F)cc(-c2ccc3nc(NC(=O)[C@@H]4C[C@@H]4F)cn3c2)c2cn[nH]c12` [Example 335, (1S,2S)-N-(6-(7-(dimethylamino)-6-fluoro-1H-indazol-4-yl)imidazo[1,2-a]pyridin-2-yl)-2-fluorocyclopropane-1-carboxamide], with less than 100 nM. The same measure for `O=C(Nc1cn2cc(-c3c(Cl)c(F)c(N4CCCC4=O)c4[nH]ncc34)ccc2n1)[C@@H]1C[C@@H]1F` [Example 336, (1S,2S)-N-(6-(5-chloro-6-fluoro-7-(2-oxopyrrolidin-1-yl)-1H-indazol-4-yl)imidazo[1,2-a]pyridin-2-yl)-2-fluorocyclopropane-1-carboxamide]: less than 100 nM. The same measure for `CN(c1ccccn1)c1c(F)c(Cl)c(-c2ccc3nc(NC(=O)[C@@H]4C[C@@H]4F)cn3c2)c2cn[nH]c12` [Example 337, (1S,2S)-N-(6-(5-chloro-6-fluoro-7-(methyl(pyridin-2-yl)amino)-1H-indazol-4-yl)imidazo[1,2-a]pyridin-2-yl)-2-fluorocyclopropane-1-carboxamide]: less than 100 nM.

Turning to `CNC(=O)c1c(F)c(C)c(-c2ccc3nc(NC(=O)[C@@H]4C[C@@H]4F)cn3c2)c2cn[nH]c12` [Example 338, 6-fluoro-4-(2-((1S,2S)-2-fluorocyclopropane-1-carboxamido)imidazo[1,2-a]pyridin-6-yl)-N,5-dimethyl-1H-indazole-7-carboxamide], the IC50 was in the range of 101 to 500 nM. `CCc1c(F)c(C(F)(F)F)c2[nH]ncc2c1-c1ccc2nc(NC(=O)[C@@H]3C[C@@H]3F)cn2c1` [Example 339, (1S,2S)-N-(6-(5-ethyl-6-fluoro-7-(trifluoromethyl)-1H-indazol-4-yl)imidazo[1,2-a]pyridin-2-yl)-2-fluorocyclopropane-1-carboxamide]: the IC50 is less than 100 nM. The same measure for `CSc1ccc(-c2ccc3nc(NC(=O)[C@@H]4C[C@@H]4F)cn3c2)c2cn[nH]c12` [Example 340, (1S,2S)-2-fluoro-N-(6-(7-(methylthio)-1H-indazol-4-yl)imidazo[1,2-a]pyridin-2-yl)cyclopropane-1-carboxamide]: 101 to 500 nM. Take `CCN(C)C(=O)c1c(F)c(Cl)c(-c2ccc3nc(NC(=O)[C@@H]4C[C@@H]4F)cn3c2)c2cn[nH]c12` [Example 341, 5-chloro-N-ethyl-6-fluoro-4-(2-((1S,2S)-2-fluorocyclopropane-1-carboxamido)imidazo[1,2-a]pyridin-6-yl)-N-methyl-1H-indazole-7-carboxamide]: the IC50 was less than 100 nM. The same measure for `CSc1c(F)cc(-c2ccc3nc(NC(=O)[C@@H]4C[C@@H]4F)cn3c2)c2cn[nH]c12` [Example 342, (1S,2S)-2-fluoro-N-(6-(6-fluoro-7-(methylthio)-1H-indazol-4-yl)imidazo[1,2-a]pyridin-2-yl)cyclopropane-1-carboxamide]: less than 100 nM. For the compound `Cc1c(F)c(C(F)F)c2[nH]ncc2c1-c1ccc2nc(NC(=O)[C@@H]3C[C@@H]3F)cn2c1` [Example 343, (1S,2S)-N-(6-(7-(difluoromethyl)-6-fluoro-5-methyl-1H-indazol-4-yl)imidazo[1,2-a]pyridin-2-yl)-2-fluorocyclopropane-1-carboxamide], the IC50 was less than 100 nM. The same measure for `O=C(Nc1cn2cc(-c3cc(F)c(OC(F)(F)F)c4[nH]ncc34)ccc2n1)[C@@H]1C[C@@H]1F` [Example 344, (1S,2S)-2-fluoro-N-(6-(6-fluoro-7-(trifluoromethoxy)-1H-indazol-4-yl)imidazo[1,2-a]pyridin-2-yl)cyclopropane-1-carboxamide]: 101 to 500 nM; for `Cc1c(F)c(OC(F)(F)F)c2[nH]ncc2c1-c1ccc2nc(NC(=O)[C@@H]3C[C@@H]3F)cn2c1` [Example 345, (1S,2S)-2-fluoro-N-(6-(6-fluoro-5-methyl-7-(trifluoromethoxy)-1H-indazol-4-yl)imidazo[1,2-a]pyridin-2-yl)cyclopropane-1-carboxamide]: less than 100 nM; for `CN(c1ncccn1)c1c(F)c(Cl)c(-c2ccc3nc(NC(=O)[C@@H]4C[C@@H]4F)cn3c2)c2cn[nH]c12` [Example 346, (1S,2S)-N-(6-(5-chloro-6-fluoro-7-(methyl(pyrimidin-2-yl)amino)-1H-indazol-4-yl)imidazo[1,2-a]pyridin-2-yl)-2-fluorocyclopropane-1-carboxamide]: less than 100 nM. The same measure for `CN(CC(F)(F)F)C(=O)c1c(F)c(Cl)c(-c2ccc3nc(NC(=O)[C@@H]4C[C@@H]4F)cn3c2)c2cn[nH]c12` [Example 347, 5-chloro-6-fluoro-4-(2-((1S,2S)-2-fluorocyclopropane-1-carboxamido)imidazo[1,2-a]pyridin-6-yl)-N-methyl-N-(2,2,2-trifluoroethyl)-1H-indazole-7-carboxamide]: less than 100 nM.
